Assay results from PMC8129133, “Polymer-free corticosteroid dimer implants for controlled and sustained drug delivery” (Nature Communications, 2021).
“And” between values parts separate entries of the source, which are not always exact repeats. Equal entries are not always repeated.

Legend:
[1] = Dissolution of intravitreal implants in the rabbit eye (IR imaging of implant diameter, model fit); assay type: in vivo; settings: for local surface dissolution rate constant / Implant Diameter (%): intravitreal; for local surface dissolution rate constant / Diameter of the drug delivery device / Diameter of drug delivery device: rabbit eye; for Implant Diameter (%): Fig 8b, 30 G × 6 mm implant, rabbit; for Diameter of the drug delivery device: script for Supp Fig 11a (30 G implant); for Diameter of drug delivery device: script for Supp Fig 11b, 32G × 6mm
Method: Sample preparation. All implants were formed by melt extrusion of Dex-TEG-Dex, followed by cutting of implants to desired length. Samples were loaded into appropriate sized needles (27 G for 27 G implant, 30 G for 30 G, and 32 G implants), packaged, and sterilized by ethylene oxide gas.
IR imaging. Wide-angle infrared (IR) imaging was performed at baseline, and monthly thereafter for implant imaging and eye health assessment. The imaging was performed using a Heidelberg Spectralis® imaging platform and IR images were analyzed using image analysis software (Image J v.1.8.0) to measure the diameter change of the implants. Three diameter measurements per image and a minimum of two images per implant were used to determine the diameter of the implant at each time point.
Mathematical modeling of drug release. Modeling of the Dex-TEG-Dex implants in the rabbit eye was performed using a compartmental model of drug release using MathWorks MATLAB R2020b. In this model, the drug delivery device is formed of solid drug dimer which undergoes surface erosion to release dimer into an intermediate domain. In the intermediate domain, dimer undergoes degradation to free drug and mono (linker-drug), which subsequently degrades to free linker and free drug. These components undergo transport to the target domain and are then cleared.
This model employs several simplifying assumptions. (1) The mechanism of surface dissolution is local (the same for each part of the surface independent of its location on the surface of the implant), in a manner dependent on the properties of the implant’s physiological location (e.g., dimer saturation). (2) Rate constants of processes are time independent, and the dissolution rates only depend on the corresponding changes in the shape of the delivery devices and properties of their environment. (3) Dimer degradation in the domain of interest occurs on a comparatively fast time scale such that the saturation concentration of dimer is not reached.
A differential equation for the radius, R(t), of a cylindrical drug delivery device described by the compartmental model and derived using Noyes–Whitney equation[74],[75] can be written as (1):1 dR/dt=−DμY/ρh⋅y^*=−b, where D is a diffusion coefficient, µY is the molecular mass of the dimer, ρ is the density of the drug delivery device material, h is the thickness of the concentration gradient layer near the surface, y* is the saturation concentration of the dimer and b is the local surface dissolution rate.
The initial radius, R, of the cylindrical device is known: R0=R0 . Integrating Eq. (1) with this initial condition, gives Eq. (2):2 Rt=R0−b⋅t
Equation (2) was fit to available data (time-dependent measurements of implant diameter) to estimate the local surface dissolution rate constant b for the 30 G × 6 mm and 32 G × 6 mm Dex-TEG-Dex intravitreal implants.

[2] = 3-point bend test of extruded rods; assay type: physicochemical; settings: Fig 2c
From the text: Extruded rods of ~300 µm diameter and 8 mm length (6 mm span on testing apparatus) were subjected to a 3-point bend test using an Instron uniaxial servo-hydraulic testing machine (Instron Model 8501) with a 2.5 N load cell and cross-head speed of 0.8 mm/min.

[3] = Shelf-life stability study (polarized light microscopy); assay type: physicochemical; settings: extruded amorphous implants
Method: Extruded Dex-TEG-Dex implants were assessed for shelf-life stability. Melt extruded Dex-TEG-Dex materials were packaged in the lumen of 30 G needles (BD) and stored in an anhydrous pouch containing desiccant. Samples were aged at 25 °C, 40 °C, and 70 °C for up to 4 months, corresponding to real-time aging of 126 days (25 °C, 4 months), 356 days (40 °C, 4 months), and 2851 days (70 °C, 4 months). At specified time points, samples were removed from their packaging and assessed by polarized light microscopy as outlined below.
Samples were placed on glass slides, cross-sectioned as needed and imaged with a polarizing light microscope (SM-LUX-POL, Leitz) equipped with a Leica EC4 digital camera (Leica) using LAS EZ v.3.2.0 software (Leica). Additionally, a λ-plate compensator was used to assist in evaluation of features with weak birefringence.

[4] = rabbit, in vivo
Method: Analysis of samples was conducted using a SCIEX API 5000 mass spectrometer (Applied Biosystems/MDS Sciex), Shimadzu LC-20ADXR HPLC pumps, Shimadzu SCL-10A controller, and HTS-PAL autoinjector (CTC Analytics). Chromatography was performed using a Waters X-Bridge C-18 (3.5 µm; 100 × 2.1 mm) column equipped with a Phenomenex KrudKatcher ULTRA HPLC In-Line Filter (Part AF0-8497). The column was held at a temperature of 40 °C, while the autosampler compartment was maintained at 4 °C. Mobile phases consisted of: (A) 95:5 H2O:MeOH with 2 mM Ammonium Acetate (NH4OAc) and (B) 85:10:5 MeOH:H2O:MeCN with 2 mM NH4OAc. A gradient elution profile was employed, following the trend of: (0 min 30% B), (0.50 min 30% B), (2.50 min 65% B), (2.51 min 100% B), (4.50 min 100% B), (4.51 min 30% B), (6.50 min 30% B). Flow was constant at 0.6 mL min^-1 with an injection volume of 10 µL. For MS parameters, the system was operated in positive ion mode with a TurboIonSpray probe monitoring transitions (±0.2 AMU) of m/z 393.2 → 373.2 for Dex and 397.3 → 377.2 for the Dex-d4 deuterated internal standard. Analyst Version 1.4.2 (Applied Biosystems-MDS Sciex) was used for instrument control, data acquisition, and peak integrations, while calculations including peak area ratios, standard curve regressions, sample concentration values, and descriptive statistics were performed with the assistance of the ALIS2004 validated LIMS.
Dex and internal standard (Dex-d4) were extracted from vitreous humor on ice using protein precipitation. Samples were initially centrifuged at approximately 1500 rcf for 5 min to remove any interfering particulates. Stepwise, the protocol for extraction from vitreous humor was to (1) pipette 50 µL of vitreous humor into an extraction tube; (2) add 13 µL H2O and vortex to mix; (3) add 25 µL internal standard spiking solution (100 ng/mL Dex-d4 in a 1:1 solvent of MeOH:H2O); (4) add 25 µL of make-up reagent (1:1 mixture of MeOH:H2O); (5) vortex mix for 5-10 s at a speed setting of 4 or 5; (6) centrifuge at ~60 rcf for 2 min; (7) add 300 µL of 9:1 MeOH:5 mM NH4OAc at pH 7 to precipitate proteins; (8) cap and vortex mix at full speed for 2 min; (9) Centrifuge at approximately 2700 rcf for 5 min; (10) transfer 300 µL of supernatant to a separate tube; (11) vortex the collected supernatant for 30 s at a low to moderate speed; (12) centrifuge at ~1500 rcf for 5 min; (13) store prepared extract at 4 °C until analysis by LC-MS/MS.
Pharmacokinetics. […] Animals were anesthetized with ketamine (up to ~50 mg/kg) and xylazine (up to ~10 mg/kg). Eyes were surgically prepared before intravitreal procedures with 5% betadine and topical anesthetic eye drops (proparacaine hydrochloride, 0.5%). Prior to test article administration, pupils were dilated with topical application of one drop each of 10% phenylephrine and 1% tropicamide on each cornea.
Implants (30 G × 6 mm Dex-TEG-Dex extruded rods, Ozurdex®) were injected (30 G needle for Dex-TEG-Dex, 22 G needle for Ozurdex®) intravitreally into the eyes of New Zealand White rabbits (female, 1.5–2.5 kg) with terminal timepoints of 1 and 2 weeks and 1, 2, 3, 6, 9, 12, and 14 months. Ocular tissues and plasma were collected at each timepoint and analyzed for Dex by LC/MS/MS. Whole globe eyes were collected into centrifuge tubes and remained frozen for a minimum of 24 h before dissection and tissue collection. During dissection, vitreous humor containing any remaining test article was collected frozen into pre-weighed centrifuge tubes and stored at −80 °C until further processing.

With `C[C@@H]1C[C@H]2[C@@H]3CCC4=CC(=O)C=C[C@]4(C)[C@@]3(F)[C@@H](O)C[C@]2(C)[C@@]1(O)C(=O)COC(=O)OCCOCCOCCOC(=O)OCC(=O)[C@@]1(O)[C@H](C)C[C@H]2[C@@H]3CCC4=CC(=O)C=C[C@]4(C)[C@@]3(F)[C@@H](O)C[C@@]21C` [Dex-TEG-Dex] the “local surface dissolution rate constant” value ([1]; 30 G implant) was 0.1510 ± 0.0084 µm/day, the “local surface dissolution rate constant” value ([1]; 32 G implant) was 0.1522 ± 0.0140 µm/day and the “Implant Diameter (%)” value ([1]; 0 days) was 107.57% and 103.15% and 92.13% and 99.18% and 92.81% and 97.05% and 100.23% and 107.88%. The “Implant Diameter (%)” value ([1]; 35 days) was 87.55% and 86.70% and 88.00% and 92.68% and 90.49% and 81.42% and 103.34% and 91.71%, the “Implant Diameter (%)” value ([1]; 76 days) was 82.56% and 74.07% and 79.78% and 98.06% and 80.37% and 72.75% and 93.94% and the “Implant Diameter (%)” value ([1]; 128 days) was 76.90% and 66.50% and 66.32% and 64.24% and 79.47% and 77.51% and 67.41% and 82.08%. For the same molecule, the “Implant Diameter (%)” value ([1]; 210 days) was 55.93% and 41.19% and 50.86% and 49.89% and 69.49% and 44.35% and 52.23% and 60.96%, the “Diameter of the drug delivery device” value ([1]; day 0) was 115.44 µm and 122.56 µm and 115.98 µm and 121.28 µm and 125.25 µm and 134.81 µm and 135.77 µm and 128.91 µm and the “Diameter of the drug delivery device” value ([1]; day 35) was 109.97 µm and 115.81 µm and 110.60 µm and 101.74 µm and 129.14 µm and 114.61 µm and 109.41 µm and 108.35 µm. For the same molecule, the “Diameter of the drug delivery device” value ([1]; day 76) was 92.56 µm and 99.70 µm and 122.54 µm and 101.44 µm and 90.91 µm and 117.39 µm and 94.21 µm and 112.13 µm, the “Diameter of the drug delivery device” value ([1]; day 128) was 81.93 µm and 80.28 µm and 99.31 µm and 96.86 µm and 84.21 µm and 102.57 µm and 96.10 µm and 83.10 µm and the “Diameter of the drug delivery device” value ([1]; day 185) was 71.40 µm and 91.90 µm and 62.52 µm and 53.64 µm and 76.76 µm and 78.82 µm and 73.54 µm. The “Diameter of the drug delivery device” value ([1]; day 210) was 63.55 µm and 62.35 µm and 86.62 µm and 55.42 µm and 65.27 µm and 76.18 µm and 69.90 µm and 51.48 µm, the “Diameter of drug delivery device” value ([1]; day 0) was 71.94 µm and 80.30 µm and 83.05 µm and 99.99 µm and 86.79 µm and 101.43 µm and 116.40 µm and 84.89 µm and the “Diameter of drug delivery device” value ([1]; day 35) was 90.18 µm and 66.10 µm and 74.39 µm and 80.46 µm and 84.98 µm and 58.84 µm and 82.44 µm and 84.41 µm. For the same molecule, the “Diameter of drug delivery device” value ([1]; day 76) was 77.98 µm and 58.21 µm and 73.62 µm and 66.12 µm and 67.29 µm and 54.07 µm and 65.40 µm and 64.89 µm, the “Diameter of drug delivery device” value ([1]; day 128) was 43.88 µm and 50.55 µm and 44.52 µm and 60.85 µm and 49.60 µm and 50.03 µm and 42.29 µm and 71.40 µm and the “Flexural Modulus” value [2] was 2.45 GPa and 2.68 GPa and 3.21 GPa and 3.29 GPa and 3.01 GPa. For the same molecule, the “crystallinity after shelf-life storage” value [3] was “no evidence of crystallinity”, the “time at which free Dex fell below limits of detection” value ([4]; female, New Zealand White) was 14 months and the “levels of dexamethasone in the aqueous humor” value [4] was “below the limit of quantification for most samples”.
